# Measurements taken from patent publication US20150374673A1, “Combination Therapy for the Treatment of Nosocomial Pneumonia” (priority 2013, published 2015).
# Read-outs that look alike come from different tables or passages of the source.
# What was measured:
# Assay in all cases: Initial MIC, microbroth dilution (CLSI), avibactam 4 mg/L
# Assay type in all cases: cell-based
# E. faecalis = system: E. faecalis
# From the text: (§1) All MIC determinations including those performed in the checkerboard assay were done in cation-adjusted Mueller-Hinton broth (purchased from Becton Dickinson, Oxford UK). […]
# E. coli = conditions: Escherichia coli
# From the text: as §1
# E. cloacae = conditions: Enterobacter cloacae
# From the text: as §1
# S. aureus = system: S. aureus
# From the text: as §1
# P. aeruginosa = conditions: Pseudomonas aeruginosa
# Experimental: (§2) All MIC determinations including those performed in the checkerboard assay were done in cation-adjusted Mueller-Hinton broth (purchased from Becton Dickinson, Oxford UK).
# (§3) Initial MIC data were determined by microbroth dilution methods as recommended by CLSI (2012b). Checkerboards were made in accordance with the method given by Pillai et. al., ? Antimicrobial Combinations in Antibiotics, LABORATORY MEDICINE (Lorian Ed., 3rd Ed. (2003)) p. 365-440 as per standard microbroth dilution tests but with agents in combination. […] A final avibactam concentration of 4 mg/L was used throughout the study. Antibacterial agents were combined into microtitre plates using the Evolution III liquid handling system.
# K. pneumoniae = conditions: Klebsiella pneumoniae
# Experimental: as §2, §3
# [1] = isolate 4 E. coli Basal MICs, read-out: MIC
# [2] = isolate 1 E. cloacae Basal MICs, read-out: MIC
# [3] = isolate 16 P. aeruginosa Basal MICs, read-out: MIC
# [4] = isolate 19 P. aeruginosa PER, read-out: MIC
# [5] = isolate 9 K. pneumoniae Basal MICs, read-out: MIC
# [6] = Enterococcus faecalis, isolate 25 E. faecalis Basal MICs, read-out: MIC
# [7] = Enterococcus faecalis, isolate 26 E. faecalis Basal MICs, read-out: MIC
# [8] = Enterococcus faecalis, isolate 27 E. faecalis Basal MICs, read-out: MIC
# [9] = isolate 5 E. coli CTX-M-15, read-out: MIC
# [10] = isolate 6 E. coli TEM-4, read-out: MIC
# [11] = isolate 7 E. coli SHV-12, read-out: MIC
# [12] = isolate 8 E. coli SHV-2, read-out: MIC
# [13] = isolate 2 E. cloacae Derepressed AmpC, read-out: MIC
# [14] = isolate 3 E. cloacae Derepressed AmpC, read-out: MIC
# [15] = Staphylococcus aureus, isolate 22 S. aureus Basal MICs, read-out: MIC
# [16] = Staphylococcus aureus, isolate 23 S. aureus Basal MICs, Penicillinase+, read-out: MIC
# [17] = Staphylococcus aureus, isolate 24 S. aureus Basal MICs, Penicillinase+, read-out: MIC
# [18] = isolate 17 P. aeruginosa Derepressed AmpC, read-out: MIC
# [19] = isolate 18 P. aeruginosa Derepressed AmpC, read-out: MIC
# [20] = isolate 20 P. aeruginosa KPC-2, read-out: MIC
# [21] = isolate 21 P. aeruginosa KPC-2, read-out: MIC
# [22] = isolate 10 K. pneumoniae TEM-4, read-out: MIC
# [23] = isolate 11 K. pneumoniae CTX-M-15, read-out: MIC
# [24] = isolate 12 K. pneumoniae SHV-12, read-out: MIC
# [25] = isolate 13 K. pneumoniae KPC-3, read-out: MIC
# [26] = isolate 14 K. pneumoniae KPC-3, read-out: MIC
# [27] = isolate 15 K. pneumoniae KPC-2, read-out: MIC
smiles,measurement,setting,value
CN(C)c1cc(NC(=O)CNC(C)(C)C)c(O)c2c1C[C@H]1C[C@H]3[C@H](N(C)C)C(O)=C(C(N)=O)C(=O)[C@@]3(O)C(O)=C1C2=O [Tigecycline],MIC,E. faecalis; Enterococcus faecalis,0.06 µg/mL
same,MIC,E. faecalis; isolate 26 E. faecalis Basal MICs,0.06 µg/mL
same,MIC,E. faecalis; isolate 27 E. faecalis Basal MICs,0.06 µg/mL
same,MIC,E. coli; [1],0.12 µg/mL
same,MIC,E. coli; isolate 5 E. coli CTX-M-15,0.25 µg/mL
same,MIC,E. coli; isolate 6 E. coli TEM-4,0.5 µg/mL
same,MIC,E. coli; isolate 7 E. coli SHV-12,0.5 µg/mL
same,MIC,E. coli; isolate 8 E. coli SHV-2,0.25 µg/mL
same,MIC,E. cloacae; [2],0.5 µg/mL
same,MIC,E. cloacae; isolate 2 E. cloacae Derepressed AmpC,1 µg/mL
same,MIC,E. cloacae; isolate 3 E. cloacae Derepressed AmpC,0.5 µg/mL
same,MIC,S. aureus; Staphylococcus aureus,0.12 µg/mL
same,MIC,"S. aureus; isolate 23 S. aureus Basal MICs, Penicillinase+",0.12 µg/mL
same,MIC,"S. aureus; isolate 24 S. aureus Basal MICs, Penicillinase+",0.12 µg/mL
same,MIC,P. aeruginosa; [3],16 µg/mL
same,MIC,P. aeruginosa; isolate 17 P. aeruginosa Derepressed AmpC,32 µg/mL
same,MIC,P. aeruginosa; isolate 18 P. aeruginosa Derepressed AmpC,32 µg/mL
same,MIC,P. aeruginosa; [4],32 µg/mL
same,MIC,P. aeruginosa; isolate 20 P. aeruginosa KPC-2,16 µg/mL
same,MIC,P. aeruginosa; isolate 21 P. aeruginosa KPC-2,2 µg/mL
same,MIC,K. pneumoniae; [5],0.25 µg/mL
same,MIC,K. pneumoniae; isolate 10 K. pneumoniae TEM-4,0.25 µg/mL
same,MIC,K. pneumoniae; isolate 11 K. pneumoniae CTX-M-15,1 µg/mL
same,MIC,K. pneumoniae; isolate 12 K. pneumoniae SHV-12,0.5 µg/mL
same,MIC,K. pneumoniae; isolate 13 K. pneumoniae KPC-3,1 µg/mL
same,MIC,K. pneumoniae; isolate 14 K. pneumoniae KPC-3,0.25 µg/mL
same,MIC,K. pneumoniae; isolate 15 K. pneumoniae KPC-2,0.5 µg/mL
NC[C@H]1O[C@H](O[C@H]2[C@H](O)[C@@H](O[C@H]3O[C@H](CO)[C@@H](O)[C@H](N)[C@H]3O)[C@H](N)C[C@@H]2N)[C@H](N)C[C@@H]1O [Tobramycin],MIC,E. faecalis; [6],16 µg/mL
same,MIC,E. faecalis; [7],16 µg/mL
same,MIC,E. faecalis; [8],8 µg/mL
same,MIC,E. coli; [1],0.5 µg/mL
same,MIC,E. coli; [9],64 µg/mL
same,MIC,E. coli; [10],1 µg/mL
same,MIC,E. coli; [11],1 µg/mL
same,MIC,E. coli; [12],64 µg/mL
same,MIC,E. cloacae; [2],0.25 µg/mL
same,MIC,E. cloacae; [13],0.25 µg/mL
same,MIC,E. cloacae; [14],0.25 µg/mL
same,MIC,S. aureus; [15],0.25 µg/mL
same,MIC,S. aureus; [16],0.5 µg/mL
same,MIC,S. aureus; [17],0.25 µg/mL
same,MIC,P. aeruginosa; [3],0.25 µg/mL
same,MIC,P. aeruginosa; [18],0.5 µg/mL
same,MIC,P. aeruginosa; [19],0.5 µg/mL
same,MIC,P. aeruginosa; [4],1 µg/mL
same,MIC,P. aeruginosa; [20],256 µg/mL
same,MIC,P. aeruginosa; [21],8 µg/mL
same,MIC,K. pneumoniae; [5],0.25 µg/mL
same,MIC,K. pneumoniae; [22],4 µg/mL
same,MIC,K. pneumoniae; [23],0.25 µg/mL
same,MIC,K. pneumoniae; [24],0.25 µg/mL
same,MIC,K. pneumoniae; [25],0.25 µg/mL
same,MIC,K. pneumoniae; [26],8 µg/mL
same,MIC,K. pneumoniae; [27],0.12 µg/mL
C[C@H]1COc2c(N3CCN(C)CC3)c(F)cc3c(=O)c(C(=O)O)cn1c23 [Levofloxacin],MIC,E. faecalis; [6],0.5 µg/mL
same,MIC,E. faecalis; [7],1 µg/mL
same,MIC,E. faecalis; [8],1 µg/mL
same,MIC,E. coli; [9],16 µg/mL
same,MIC,E. coli; [10],0.015 µg/mL
same,MIC,E. coli; [11],0.015 µg/mL
same,MIC,E. coli; [12],16 µg/mL
same,MIC,E. cloacae; [2],0.03 µg/mL
same,MIC,E. cloacae; [13],0.5 µg/mL
same,MIC,E. cloacae; [14],0.06 µg/mL
same,MIC,S. aureus; [15],0.25 µg/mL
same,MIC,S. aureus; [16],0.12 µg/mL
same,MIC,S. aureus; [17],0.12 µg/mL
same,MIC,P. aeruginosa; [3],1 µg/mL
same,MIC,P. aeruginosa; [18],8 µg/mL
same,MIC,P. aeruginosa; [19],0.12 µg/mL
same,MIC,P. aeruginosa; [4],16 µg/mL
same,MIC,P. aeruginosa; [20],16 µg/mL
same,MIC,P. aeruginosa; [21],32 µg/mL
same,MIC,K. pneumoniae; [5],0.03 µg/mL
same,MIC,K. pneumoniae; [22],0.03 µg/mL
same,MIC,K. pneumoniae; [23],16 µg/mL
same,MIC,K. pneumoniae; [24],0.03 µg/mL
same,MIC,K. pneumoniae; [25],0.06 µg/mL
same,MIC,K. pneumoniae; [26],16 µg/mL
same,MIC,K. pneumoniae; [27],0.06 µg/mL
